# Measurements published in the supplement of paper PMC10307832.
# What was measured:
# Test in all cases: relative viability (nuclei count vs DMSO), 5 days (fraction); higher = more cells survive
# [1] = compound: CC1=C(C(=NN1)C)CC2=C(C3=C(S2)N(C(=O)N(C3=O)C)CC(C)C)C(=O)N4C[C@@H](CO4)O + Cc1nc(NC(=O)N2CCC[C@H]2C(N)=O)sc1-c1ccnc(C(C)(C)C(F)(F)F)c1 [Alpelisib] (partner 2 µM)
# In short: (§1)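 Relative viability was taken as the ratio of nuclei in treated wells to nuclei in vehicle wells. Lung cancer cell lines in 1536-well plates received compounds by pin tool one day after seeding, either one drug alone or a fixed anchor-drug dose plus five library-drug doses (not always all listed) in √10 steps. Nuclei were counted on 4× images after 5 days of treatment, and values are medians of duplicate plates.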
# [2] = compound: CC1=C(C(=NN1)C)CC2=C(C3=C(S2)N(C(=O)N(C3=O)C)CC(C)C)C(=O)N4C[C@@H](CO4)O + CC(=O)c1c(C)c2cnc(Nc3ccc(N4CCNCC4)cn3)nc2n(C2CCCC2)c1=O [Palbociclib] (partner 0.5 µM)
# In short: as §1
# IDH-C35 + Pemetrexed = compound: Cc1ccccc1C(C(=O)NC1CCCCC1)N(C(=O)Cn1ccnc1C)c1cccc(F)c1 [IDH-C35] + Nc1nc2[nH]cc(CCc3ccc(C(=O)N[C@@H](CCC(=O)O)C(=O)O)cc3)c2c(=O)[nH]1 [Pemetrexed] (partner 0.2 µM)
# In short: as §1
# IDH-C35 + Pictilisib = compound: Cc1ccccc1C(C(=O)NC1CCCCC1)N(C(=O)Cn1ccnc1C)c1cccc(F)c1 [IDH-C35] + CS(=O)(=O)N1CCN(Cc2cc3nc(-c4cccc5[nH]ncc45)nc(N4CCOCC4)c3s2)CC1 [Pictilisib] (partner 1 µM)
# In short: as §1
Cell Line,relative viability ([1]; first compound 0.0025 µM),relative viability ([1]; first compound 0.007906 µM),relative viability ([1]; first compound 0.025 µM),relative viability ([1]; first compound 0.07906 µM),relative viability ([1]; first compound 0.25 µM),relative viability ([2]; first compound 0.0025 µM),relative viability ([2]; first compound 0.007906 µM),relative viability ([2]; first compound 0.025 µM),relative viability ([2]; first compound 0.07906 µM),relative viability ([2]; first compound 0.25 µM),relative viability (IDH-C35 + Pemetrexed; first compound 0.08 µM),relative viability (IDH-C35 + Pemetrexed; first compound 0.253 µM),relative viability (IDH-C35 + Pemetrexed; first compound 0.8 µM),relative viability (IDH-C35 + Pemetrexed; first compound 2.53 µM),relative viability (IDH-C35 + Pemetrexed; first compound 8 µM),relative viability (IDH-C35 + Pictilisib; first compound 0.08 µM),relative viability (IDH-C35 + Pictilisib; first compound 0.253 µM),relative viability (IDH-C35 + Pictilisib; first compound 0.8 µM),relative viability (IDH-C35 + Pictilisib; first compound 2.53 µM),relative viability (IDH-C35 + Pictilisib; first compound 8 µM)
NCI-H1755,0.963,1.03,0.898,0.849,1.02,0.452,0.462,0.412,0.424,0.45,0.455,0.748,0.458,0.411,0.473,0.451,0.411,0.448,0.452,0.412
NCI-H661,0.914,0.803,0.559,0.654,0.421,0.395,0.426,0.455,0.396,0.426,0.95,0.948,0.893,0.901,0.879,0.346,0.446,0.404,0.534,0.427
HARA,1.01,0.922,0.837,0.768,0.801,0.308,0.199,0.28,0.247,0.264,0.278,0.239,0.326,0.256,0.254,0.369,0.455,0.483,0.415,0.328
NCI-H23,0.823,0.767,0.666,0.634,0.892,0.508,0.639,0.559,0.518,0.665,0.642,0.848,0.625,0.773,0.652,0.473,0.494,0.526,0.397,0.456
LCLC-97TM1,0.276,0.206,0.257,0.188,0.228,0.262,0.266,0.279,0.196,0.247,0.216,0.173,0.201,–,0.145,0.17,0.168,0.192,–,0.192
EPLC-272H,0.99,0.943,0.99,0.899,0.829,0.322,0.315,0.319,0.324,0.331,0.276,0.388,0.397,0.34,0.394,0.369,0.338,0.283,–,0.329
NCI-H1915,1.09,1.11,1.1,1.15,1.07,0.563,0.574,0.522,0.532,0.539,0.555,0.475,0.508,0.54,0.461,0.976,0.914,0.975,0.934,0.914
NCI-H2405,0.735,0.688,–,0.78,0.669,0.529,0.531,0.54,0.473,0.563,1.05,1.07,0.93,1.24,1.08,0.487,0.363,0.377,–,0.52
NCI-H322M,0.769,0.793,0.866,0.831,0.748,0.557,0.467,0.536,0.441,0.505,0.622,0.554,0.644,0.578,0.608,0.459,0.488,0.471,0.496,0.526
NCI-H2170,0.918,0.868,0.705,0.819,0.786,0.432,0.446,0.431,0.39,0.409,0.277,0.341,0.265,0.267,0.262,0.33,0.378,0.332,0.342,0.336
NCI-H1395,1.04,0.898,1.06,0.983,1.01,0.682,0.614,0.595,0.606,0.663,0.869,0.882,0.866,0.989,0.925,0.601,0.555,0.681,0.603,0.697
NCI-H358,0.893,0.906,0.78,0.903,1.04,0.144,0.132,0.12,0.121,0.14,0.168,0.179,0.175,0.184,0.172,0.408,0.33,0.317,0.366,0.385
NCI-H838,1.05,1.05,0.989,0.967,0.974,0.206,0.193,0.182,0.275,0.182,0.241,0.248,0.272,0.255,0.235,0.414,0.506,0.453,0.508,0.423
CAL-12T,1.27,1.3,1.03,1.06,1.58,0.481,0.413,0.484,0.574,0.418,1.23,1.14,1.37,1.15,1.12,0.347,0.429,0.559,0.339,0.608
